Reference: patent US8691753B2 (priority 2009, dated 2014)
Read-outs that look alike come from different tables or passages of the source.

Columns and labels:
Type in all cases: biochemical
MMP-12h = MMP-12h (Homo sapiens (Human), UniProt P39900); assay: Inhibition constant (Ki) on MMP-12h; settings: human MMP-12
MMP-8h = MMP-8h (Homo sapiens (Human), UniProt P22894); assay: Inhibition constant (Ki) on MMP-8h; settings: human MMP-8
MMP-14h = MMP-14h (Homo sapiens (Human), UniProt P50281); assay: Inhibition constant (Ki) on MMP-14h; settings: human MMP-14
Method in brief: (§1)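 Human MMPs; Ki by published enzyme-inhibition method.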

MMP-10h = MMP-10h (Homo sapiens (Human), UniProt P09238); assay: Inhibition constant (Ki) on MMP-10h; settings: human MMP-10
MMP-3h = MMP-3h (Homo sapiens (Human), UniProt P08254); assay: Inhibition constant (Ki) on MMP-3h; settings: human MMP-3
Method in brief: as §1

MMP-9h = MMP-9h (Homo sapiens (Human), UniProt P14780); assay: Inhibition constant (Ki) on MMP-9h; settings: human MMP-9
Method in brief: as §1

MMP-2h = MMP-2h (Homo sapiens (Human), UniProt P08253); assay: Inhibition constant (Ki) on MMP-2h; settings: human MMP-2
Method in brief: as §1

MMP-13h = MMP-13h (Homo sapiens (Human), UniProt P45452); assay: Inhibition constant (Ki) on MMP-13h; settings: human MMP-13
Method in brief: as §1

MMP-3h, sequence (P08254 100-477): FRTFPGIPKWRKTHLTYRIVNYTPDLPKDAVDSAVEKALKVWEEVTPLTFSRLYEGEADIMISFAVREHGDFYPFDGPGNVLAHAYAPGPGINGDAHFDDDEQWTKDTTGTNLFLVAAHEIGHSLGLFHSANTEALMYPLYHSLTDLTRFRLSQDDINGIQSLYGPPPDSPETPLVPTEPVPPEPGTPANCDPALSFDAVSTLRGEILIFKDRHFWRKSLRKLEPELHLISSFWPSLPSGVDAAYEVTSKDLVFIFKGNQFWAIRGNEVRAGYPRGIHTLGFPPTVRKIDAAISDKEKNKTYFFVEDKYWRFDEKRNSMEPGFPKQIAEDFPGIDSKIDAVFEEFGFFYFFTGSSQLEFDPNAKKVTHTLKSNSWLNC
MMP-8h, sequence (P22894 101-467): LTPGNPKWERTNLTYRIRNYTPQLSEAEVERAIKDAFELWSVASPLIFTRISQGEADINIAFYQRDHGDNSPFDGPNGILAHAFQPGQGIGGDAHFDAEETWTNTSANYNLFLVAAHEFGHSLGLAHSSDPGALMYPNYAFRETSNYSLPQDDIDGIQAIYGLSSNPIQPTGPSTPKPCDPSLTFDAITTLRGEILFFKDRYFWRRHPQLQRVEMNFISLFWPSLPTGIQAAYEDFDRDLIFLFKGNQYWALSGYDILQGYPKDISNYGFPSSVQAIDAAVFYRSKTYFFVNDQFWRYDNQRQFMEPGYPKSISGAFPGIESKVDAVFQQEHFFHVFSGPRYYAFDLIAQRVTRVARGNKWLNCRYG
MMP-9h, sequence (P14780 94-707): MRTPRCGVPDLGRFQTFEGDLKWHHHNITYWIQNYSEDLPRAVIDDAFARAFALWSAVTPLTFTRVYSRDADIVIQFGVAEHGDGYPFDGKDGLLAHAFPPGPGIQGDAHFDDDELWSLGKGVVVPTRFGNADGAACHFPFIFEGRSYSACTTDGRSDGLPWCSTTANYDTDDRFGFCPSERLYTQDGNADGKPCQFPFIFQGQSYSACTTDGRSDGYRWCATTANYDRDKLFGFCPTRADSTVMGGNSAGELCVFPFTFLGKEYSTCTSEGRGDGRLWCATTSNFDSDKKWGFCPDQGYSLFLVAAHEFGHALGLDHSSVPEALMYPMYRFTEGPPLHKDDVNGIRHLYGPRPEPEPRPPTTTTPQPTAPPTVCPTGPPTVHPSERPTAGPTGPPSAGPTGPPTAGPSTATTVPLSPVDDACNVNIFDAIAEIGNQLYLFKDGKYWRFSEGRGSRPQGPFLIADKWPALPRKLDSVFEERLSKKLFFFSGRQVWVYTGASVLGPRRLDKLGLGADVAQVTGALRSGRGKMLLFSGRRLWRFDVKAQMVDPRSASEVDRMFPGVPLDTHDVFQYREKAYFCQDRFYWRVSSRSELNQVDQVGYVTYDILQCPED
MMP-10h, sequence (P09238 99-476): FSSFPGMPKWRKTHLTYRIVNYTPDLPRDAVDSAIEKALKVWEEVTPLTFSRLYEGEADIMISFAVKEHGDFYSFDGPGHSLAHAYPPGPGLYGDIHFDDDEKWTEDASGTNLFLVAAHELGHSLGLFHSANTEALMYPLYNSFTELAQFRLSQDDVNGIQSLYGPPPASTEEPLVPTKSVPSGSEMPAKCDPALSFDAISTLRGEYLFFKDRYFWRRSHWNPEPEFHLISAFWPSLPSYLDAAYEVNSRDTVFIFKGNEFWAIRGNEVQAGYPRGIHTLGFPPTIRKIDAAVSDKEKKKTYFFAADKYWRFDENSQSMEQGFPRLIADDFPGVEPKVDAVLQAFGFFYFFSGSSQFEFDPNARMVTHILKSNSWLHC
MMP-12h, sequence (P39900 106-470): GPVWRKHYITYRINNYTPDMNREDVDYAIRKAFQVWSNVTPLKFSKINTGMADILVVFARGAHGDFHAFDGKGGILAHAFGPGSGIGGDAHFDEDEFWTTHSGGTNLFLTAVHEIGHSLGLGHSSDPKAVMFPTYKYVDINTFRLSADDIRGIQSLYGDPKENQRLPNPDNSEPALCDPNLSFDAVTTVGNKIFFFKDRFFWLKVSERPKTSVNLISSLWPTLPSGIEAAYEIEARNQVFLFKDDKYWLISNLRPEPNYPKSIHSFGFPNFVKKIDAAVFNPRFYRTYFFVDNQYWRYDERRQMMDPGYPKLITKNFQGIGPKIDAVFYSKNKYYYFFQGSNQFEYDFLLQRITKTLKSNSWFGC
MMP-2h, sequence (P08253 110-660): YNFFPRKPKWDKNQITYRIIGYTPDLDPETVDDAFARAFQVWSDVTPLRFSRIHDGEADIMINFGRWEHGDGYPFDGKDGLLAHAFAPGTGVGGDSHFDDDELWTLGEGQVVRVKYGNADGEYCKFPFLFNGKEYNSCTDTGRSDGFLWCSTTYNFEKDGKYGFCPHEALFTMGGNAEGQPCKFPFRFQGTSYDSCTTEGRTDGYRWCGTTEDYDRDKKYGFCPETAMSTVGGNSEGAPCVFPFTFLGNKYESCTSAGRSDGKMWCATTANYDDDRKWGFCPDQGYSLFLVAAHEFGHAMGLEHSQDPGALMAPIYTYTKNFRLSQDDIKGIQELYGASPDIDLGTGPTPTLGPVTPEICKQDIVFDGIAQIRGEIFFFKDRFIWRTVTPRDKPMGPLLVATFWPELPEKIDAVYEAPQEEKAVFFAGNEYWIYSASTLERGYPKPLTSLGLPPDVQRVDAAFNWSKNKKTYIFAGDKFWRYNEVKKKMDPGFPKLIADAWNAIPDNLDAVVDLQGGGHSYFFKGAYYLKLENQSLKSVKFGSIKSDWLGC

SMILES | Ki (MMP-12h; read-out: Ki MMP-12h) | Ki (MMP-8h; read-out: Ki MMP-8h) | Ki (MMP-14h; read-out: Ki MMP-14h) | Ki (MMP-10h; read-out: Ki MMP-10h) | Ki (MMP-3h; read-out: Ki MMP-3h) | Ki (MMP-9h; read-out: Ki MMP-9h) | Ki (MMP-2h; read-out: Ki MMP-2h) | Ki (MMP-13h; read-out: Ki MMP-13h) | Ki (MMP-12h) | Ki (MMP-8h) | Ki (MMP-14h) | Ki (MMP-10h) | Ki (MMP-3h) | Ki (MMP-9h) | Ki (MMP-2h) | Ki (MMP-13h)
NC(=O)[C@H](CO)NC(=O)[C@H](CCC(=O)O)NC(=O)CCc1ccc(-c2ccc(-c3ccccc3)cc2)cc1 [Compound 68, (S)-5-((S)-1-amino-3-hydroxy-1-oxopropan-2-ylamino)-4-(3-(4′-phenylbiphenyl-4-yl)propanamido)-5-oxopentanoic acid] | 0.0035 µM | 0.227 µM | > 1 µM | 0.071 µM | 0.108 µM | > 1 µM | 0.031 µM | 0.0166 µM | – | – | – | – | – | – | – | –
NC(=O)[C@H](CCC(=O)O)NC(=O)[C@H](CO)NC(=O)CCc1ccc(-c2ccc(-c3ccccc3)cc2)cc1 [Compound 78, (S)-5-amino-4-((S)-3-hydroxy-2-(3-(4′-phenylbiphenyl-4-yl)propanamido)propanamido)-5-oxopentanoic acid] | 0.206 µM | > 1 µM | > 1 µM | > 5 µM | 0.116 µM | > 5 µM | 0.729 µM | 0.367 µM | – | – | – | – | – | – | – | –
NC(=O)[C@H](CCC(=O)O)NC(=O)[C@H](CCC(=O)O)NC(=O)CCc1ccc(-c2ccsc2)cc1 [Compound 38, (S)-5-amino-4-((S)-4-carboxy-2-(3-(4-(thiophen-3-yl)phenyl)propanamido)butanamido)-5-oxopentanoic acid] | – | – | – | – | – | – | – | – | 0.012 µM | 0.052 µM | 0.41 µM | 0.446 µM | 0.337 µM | 0.141 µM | 0.225 µM | 0.532 µM
NC(=O)[C@H](CCC(=O)O)NC(=O)CCc1cc(-c2ccc(-c3cccc(Cl)c3)cc2)no1 [Compound 4, (S)-5-amino-4-(3-(3-(3′-chlorobiphenyl-4-yl)isoxazol-5-yl)propanamido)-5-oxopentanoic acid] | 0.0118 µM | 0.119 µM | > 1 µM | 0.122 µM | 0.118 µM | 0.12 µM | 0.09 µM | 0.046 µM | – | – | – | – | – | – | – | –
NC(=O)[C@H](CCC(=O)O)NC(=O)[C@H](CCC(=O)O)NC(=O)CCc1ccc(-c2cc(Cl)cc(Cl)c2)cc1 [Compound 58, (S)-5-amino-4-((S)-4-carboxy-2-(3-(3′,5′-dichlorobiphenyl-4-yl)propanamido)butanamido)-5-oxopentanoic acid] | 0.056 µM | > 5 µM | > 1 µM | > 1 µM | > 1 µM | 0.391 µM | > 1 µM | > 1 µM | – | – | – | – | – | – | – | –
NC(=O)CC[C@H](NC(=O)CCc1cc(-c2ccc(-c3ccccc3)cc2)no1)C(=O)N[C@@H](CCC(=O)O)C(N)=O [Compound 20, (S)-5-amino-4-((S)-5-amino-2-(3-(3-(biphenyl-4-yl)isoxazol-5-yl)propanamido)-5-oxopentanamido)-5-oxopentanoic acid] | 0.412 µM | > 1 µM | > 10 µM | > 5 µM | > 1 µM | > 1 µM | 0.834 µM | 0.234 µM | – | – | – | – | – | – | – | –
NC(=O)[C@H](CC(=O)O)NC(=O)[C@H](CCC(=O)O)NC(=O)CCc1cc(-c2ccc(-c3ccccc3)cc2)no1 [Compound 18, (S)-5-((S)-1-amino-3-carboxy-1-oxopropan-2-ylamino)-4-(3-(3-(biphenyl-4-yl)isoxazol-5-yl)propanamido)-5-oxopentanoic acid] | – | – | – | – | – | – | – | – | 0.008 µM | 0.832 µM | > 1 µM | 0.196 µM | 0.44 µM | > 1 µM | 0.093 µM | 0.03 µM
NC(=O)CC[C@H](NC(=O)[C@H](CCC(=O)O)NC(=O)CCc1ccc(-c2ccc(-c3ccccc3)cc2)cc1)C(N)=O [Compound 62, (S)-5-((S)-1,5-diamino-1,5-dioxopentan-2-ylamino)-4-(3-(4′-phenylbiphenyl-4-yl)propanamido)-5-oxopentanoic acid] | 0.0052 µM | 0.452 µM | > 1 µM | 0.102 µM | 0.244 µM | > 1 µM | 0.045 µM | 0.02 µM | – | – | – | – | – | – | – | –
NC(=O)[C@@H](CCC(=O)O)NC(=O)[C@H](CCC(=O)O)NC(=O)CCc1cc(-c2ccc(-c3cccc(Cl)c3)cc2)no1 [Compound 5, (R)-5-amino-4-((S)-4-carboxy-2-(3-(3-(3′-chlorobiphenyl-4-yl)isoxazol-5-yl)propanamido)butanamido)-5-oxopentanoic acid] | 0.0089 µM | 0.552 µM | > 1 µM | 0.044 µM | 0.24 µM | > 1 µM | 0.112 µM | 0.053 µM | – | – | – | – | – | – | – | –
NC(=O)[C@H](CCC(=O)O)NC(=O)[C@@H](CCC(=O)O)NC(=O)CCc1cc(-c2ccc(-c3cccc(Cl)c3)cc2)no1 [Compound 6, (S)-5-amino-4-((R)-4-carboxy-2-(3-(3-(3′-chlorobiphenyl-4-yl)isoxazol-5-yl)propanamido)butanamido)-5-oxopentanoic acid] | 0.401 µM | > 5 µM | > 10 µM | 0.489 µM | > 1 µM | > 5 µM | 0.403 µM | 0.235 µM | – | – | – | – | – | – | – | –
NC(=O)[C@H](CCC(=O)O)NC(=O)[C@H](CCC(=O)O)NC(=O)CCc1cc(-c2ccc(-c3ccccc3)cc2)no1 [Compound 16, (S)-5-amino-4-((S)-2-(3-(3-(biphenyl-4-yl)isoxazol-5-yl)propanamido)-4-carboxybutanamido)-5-oxopentanoic acid] | – | – | – | – | – | – | – | – | 0.0034 µM | 0.383 µM | > 1 µM | 0.114 µM | 0.078 µM | > 1 µM | 0.083 µM | 0.06 µM
NC(=O)[C@H](CC(=O)O)NC(=O)[C@H](CCC(=O)O)NC(=O)CCc1ccc(-c2cccs2)cc1 [Compound 83, (S)-5-((S)-1-amino-3-carboxy-1-oxopropan-2-ylamino)-5-oxo-4-(3-(4-(thiophen-2-yl)phenyl)propanamido)pentanoic acid] | 0.0142 µM | 0.049 µM | > 1 µM | 0.435 µM | > 10 µM | > 1 µM | 0.334 µM | > 1 µM | – | – | – | – | – | – | – | –
NCCCC[C@H](NC(=O)[C@H](CCC(=O)O)NC(=O)CCc1ccc(-c2cccs2)cc1)C(N)=O [Compound 82, (S)-5-((S)-1,6-diamino-1-oxohexan-2-ylamino)-5-oxo-4-(3-(4-(thiophen-2-yl)phenyl)propanamido)pentanoic acid] | 0.044 µM | 0.073 µM | > 1 µM | > 1 µM | > 10 µM | > 1 µM | 0.234 µM | > 1 µM | – | – | – | – | – | – | – | –
NC(=O)[C@H](Cc1ccc(O)cc1)NC(=O)[C@H](CCC(=O)O)NC(=O)CCc1ccc(-c2ccc(-c3ccccc3)cc2)cc1 [Compound 65, (S)-5-((S)-1-amino-3-(4-hydroxyphenyl)-1-oxopropan-2-ylamino)-4-(3-(4′-phenylbiphenyl-4-yl)propanamido)-5-oxopentanoic acid] | 0.0066 µM | 0.793 µM | > 1 µM | 0.119 µM | 0.62 µM | > 1 µM | 0.073 µM | 0.033 µM | – | – | – | – | – | – | – | –
NC(=O)[C@H](CCC(=O)O)NC(=O)[C@H](CCC(=O)O)NC(=O)CCc1ccc(-c2ccc(-c3ccccc3)s2)cc1 [Compound 92, (S)-5-amino-4-((S)-4-carboxy-2-(3-(4-(5-phenylthiophen-2-yl)phenyl)propanamido)butanamido)-5-oxopentanoic acid] | 0.00258 µM | 0.381 µM | > 1 µM | 0.156 µM | 0.108 µM | 0.874 µM | 0.279 µM | 0.2 µM | – | – | – | – | – | – | – | –
